# Laboratory results taken from publication PMC12163485 (Drug Metabolism and Disposition, 2025).
# T1: human OCT1 (hOCT1) (Homo sapiens, UniProt O15245)
# T1 sequence (O15245 1-554): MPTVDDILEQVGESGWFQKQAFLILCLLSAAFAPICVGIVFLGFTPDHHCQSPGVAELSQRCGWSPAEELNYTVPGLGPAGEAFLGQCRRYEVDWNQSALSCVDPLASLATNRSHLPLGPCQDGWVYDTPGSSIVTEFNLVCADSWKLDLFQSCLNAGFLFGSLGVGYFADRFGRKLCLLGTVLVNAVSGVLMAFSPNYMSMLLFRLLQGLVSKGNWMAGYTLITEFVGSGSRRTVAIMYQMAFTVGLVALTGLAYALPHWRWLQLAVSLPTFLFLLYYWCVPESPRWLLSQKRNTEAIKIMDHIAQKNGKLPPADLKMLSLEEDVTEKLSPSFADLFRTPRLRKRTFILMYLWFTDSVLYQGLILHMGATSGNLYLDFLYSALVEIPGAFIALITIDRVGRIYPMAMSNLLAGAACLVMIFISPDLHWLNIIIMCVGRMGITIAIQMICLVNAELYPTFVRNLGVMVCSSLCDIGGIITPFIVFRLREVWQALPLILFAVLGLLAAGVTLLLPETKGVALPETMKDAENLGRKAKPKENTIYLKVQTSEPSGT
# T2: OCT1 (Homo sapiens, UniProt O15245)
# T2 sequence (O15245 1-554): T1 sequence (O15245 1-554)
# T3: human OCTN1 (hOCTN1) (Homo sapiens, UniProt Q9H015)
# T3 construct: expressed in transfected cells
# T3 sequence (Q9H015 1-551): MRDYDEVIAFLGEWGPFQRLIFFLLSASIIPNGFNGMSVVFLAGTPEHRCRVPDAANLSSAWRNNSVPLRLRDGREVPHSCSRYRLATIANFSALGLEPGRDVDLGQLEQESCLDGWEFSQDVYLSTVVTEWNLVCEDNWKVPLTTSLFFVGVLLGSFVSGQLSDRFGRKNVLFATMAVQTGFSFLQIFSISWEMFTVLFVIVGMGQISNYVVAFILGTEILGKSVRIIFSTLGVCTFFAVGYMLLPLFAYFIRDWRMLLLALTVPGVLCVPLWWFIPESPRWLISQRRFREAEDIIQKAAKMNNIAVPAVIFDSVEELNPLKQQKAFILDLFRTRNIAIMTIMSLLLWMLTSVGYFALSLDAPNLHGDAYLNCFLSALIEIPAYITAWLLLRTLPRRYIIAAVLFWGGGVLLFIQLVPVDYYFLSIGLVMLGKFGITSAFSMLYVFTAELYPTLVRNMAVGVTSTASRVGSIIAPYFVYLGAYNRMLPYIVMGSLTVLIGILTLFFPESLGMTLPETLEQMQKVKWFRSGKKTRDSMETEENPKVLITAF
# T4: mouse OCT1 (Mus musculus, UniProt O08966)
# T4 sequence (O08966 1-556): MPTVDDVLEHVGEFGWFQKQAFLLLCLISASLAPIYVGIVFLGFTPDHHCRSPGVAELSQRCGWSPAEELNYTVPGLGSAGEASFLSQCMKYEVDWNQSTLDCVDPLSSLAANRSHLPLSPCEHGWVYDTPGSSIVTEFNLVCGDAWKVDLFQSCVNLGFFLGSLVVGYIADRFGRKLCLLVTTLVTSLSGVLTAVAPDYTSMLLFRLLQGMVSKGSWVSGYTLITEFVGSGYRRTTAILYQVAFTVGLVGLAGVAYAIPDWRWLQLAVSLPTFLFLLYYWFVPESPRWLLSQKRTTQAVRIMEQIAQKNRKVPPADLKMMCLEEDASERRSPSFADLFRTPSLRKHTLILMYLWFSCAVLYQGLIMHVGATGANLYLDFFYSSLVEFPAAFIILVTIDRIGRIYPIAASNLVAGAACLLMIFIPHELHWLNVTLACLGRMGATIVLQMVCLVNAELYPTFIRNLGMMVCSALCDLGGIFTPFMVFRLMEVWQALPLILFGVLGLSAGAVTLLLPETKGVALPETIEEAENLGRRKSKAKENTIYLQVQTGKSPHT
# B1: human OCT1 (hOCT1) (Homo sapiens) (protein)
# chain: T1 sequence (O15245 1-554)
# notes: expressed in transfected cells; empty vector control pcDNA5
# What was measured:
# human OCT1 (hOCT1) = target: T1, human OCT1 (hOCT1); set-up: expressed in transfected cells; empty vector control pcDNA5; method as in ref column References of Table 2 (Tzvetkov et al, 2018; Morse et al, 2020; Jensen et al, 2020; Meyer et al, 2019, 2022; Wittern et al, 2024 and own unpublished data; Elsby et al, 2017); conditions: literature values; References of Table 2 (Tzvetkov et al, 2018; Morse et al, 2020; Jensen et al, 2020; Meyer et al, 2019, 2022; Wittern et al, 2024 and own unpublished data; Elsby et al, 2017); cited from earlier work
# [1] = Pharmacokinetic parameters used for estimating the potential for DDIs; type: in vivo, human
# Experimental: Ka was calculated manually based on available pharmacokinetic parameters.
# OCT1 [2] = target: T2, OCT1; test: Uptake of the cocktail by HEK293 cells overexpressing human OCT1
# Experimental: (§1) Significance was calculated using Mann–Whitney U test. n = 5–8 independent experiments.
# OCT1 [3] = conditions: ref Tzvetkov et al, 2018 (fenoterol); Matthaei et al, 2016 (sumatriptan); cited from earlier work
# [4] = cited from earlier work; for cmax = Imax: dose and route as in Supplemental Table 4, ref Hardman, 2018, fenoterol Tzvetkov et al; for cmax = Imax / fraction unbound: ipratropium Zhang et al, 2023; for fraction unbound: fraction unbound in plasma, ref Hardman, 2018, Lombardo et al (2018), fenoterol Tzvetkov et al; for t1/2: ref Hardman, 2018, fenoterol Tzvetkov et al
# OCT1 [5] = target: T2, OCT1; test: DDI risk R calculated from IC50 at human OCT1; conditions: R=1+fup×Iin,max/IC50, cutoff R ≥ 1.1
# human OCTN1 (hOCTN1) = target: T3, human OCTN1 (hOCTN1); test: Uptake of the extended cocktail by HEK293 cells overexpressing hOCTN1; type: in vitro ADME; conditions: Fig. 6
# mOct1 = system: mOct1; set-up: method as in ref column References of Table 2 (Morse et al, 2020; Jensen et al, 2020; Meyer et al, 2022); conditions: literature values; References of Table 2 (Morse et al, 2020; Jensen et al, 2020; Meyer et al, 2022); cited from earlier work
# mouse OCT1 = target: T4, mouse OCT1; test: Uptake of the cocktail by HEK293 cells overexpressing mouse Oct1
# Experimental: as §1
# OCT1 [6] = conditions: read-out: inhibitory potency for metformin uptake via OCT1; substrate metformin; ref Ahlin et al, 2011; Panfen et al, 2019; cited from earlier work
# [7] = substrate: CC(Cc1ccc(O)cc1)NCC(O)c1cc(O)cc(O)c1; test: cells, lysate or membranes named; conditions: mean ± SD, pH 7.4
# [8] = substrate: O=C(O[C@H]1C[C@H]2CC[C@@H](C1)[N+]21CCCC1)C(O)(c1ccccc1)c1ccccc1; test: Transport kinetics (KM, vmax) of OCT1-mediated uptake, HEK293 cells overexpressing human OCT1; type: in vitro ADME; conditions: mean ± SD, pH 7.4
# [9] = Iin,max=Imax+Fa×ka×D/Qh, Qh 97 L/h, Fa 1, Imax for fenoterol and ipratropium
# [10] = unbound maximum inhibitor concentration at the inlet of the liver
# [11] = other: hOCT1, substrate tested alone
# [12] = other: hOCT1, substrate tested in cocktail
molecule,measurement,setting,value
"CC(Cc1ccc(O)cc1)NCC(O)c1cc(O)cc(O)c1 (stereo not shown) [Fenoterol, fenoterol]",Km,human OCT1 (hOCT1),1.8 µM
same,"Imax, portal",[1]; [9],1.23 ng/mL
same,"I max, portal, u",[1]; [10],0.0021 µM
same,transport by OCT1,"OCT1 [2]; extended cocktail, Fig. 6",transported only by OCT1
same,increase in systemic exposure in individuals homozygous for OCT1 loss-of-function genetic variants,OCT1 [3],2 fold
same,cmax = Imax,[4],1.23 ng/mL
same,fraction unbound,[4],0.53
same,t1/2,[4],1.27 h
same,"DDI risk R, victim drug ipratropium",OCT1 [5],1.00
same,"DDI risk R, victim drug metformin",OCT1 [5],1.00
same,"DDI risk R, victim drug methylnaltrexone",OCT1 [5],1.00
same,"DDI risk R, victim drug salbutamol",OCT1 [5],1.00
same,"DDI risk R, victim drug sumatriptan",OCT1 [5],1.00
same,"DDI risk R, victim drug trospium",OCT1 [5],1.00
same,"DDI risk R, victim drug zolmitriptan",OCT1 [5],1.00
"CC(C)[N+]1(C)[C@@H]2CC[C@H]1C[C@@H](OC(=O)C(CO)c1ccccc1)C2 (stereo partly shown) [Ipratropium, ipratropium]","Imax, portal",[1]; [9],0.08 ng/mL
same,"I max, portal, u",[1]; [10],0.0002 µM
C[N+](C)(C)[C@@H](Cc1c[nH]c(=S)[nH]1)C(=O)[O-] [L-ergothioneine],transport by OCTN1,human OCTN1 (hOCTN1),transported both L-carnitine and L-ergothioneine
"C[N@+]1(CC2CC2)CC[C@]23c4c5ccc(O)c4O[C@H]2C(=O)CC[C@@]3(O)[C@H]1C5 [Methylnaltrexone, methylnaltrexone]",Km,mOct1,8.61 µM
same,Km,human OCT1 (hOCT1),15.2 µM
"CC(C)(C)NCC(O)c1ccc(O)c(CO)c1 (stereo not shown) [Salbutamol, salbutamol]",Km,mOct1,52.2 µM
same,uptake stronger in mouse than in human OCT1,mouse OCT1; ratio mouse/human,4.5 fold
same,Km,human OCT1 (hOCT1),310 µM
"COc1cc(Cc2cnc(N)nc2N)cc(OC)c1OC [Trimethoprim, trimethoprim]",IC50,OCT1 [6],[…]
same,"I max, portal, u","[1]; human, in vivo",8.53 µM
same,"Imax, portal","[1]; human, in vivo",3932 ng/mL
same,ka,"[1]; human, in vivo",1.66 h⁻¹
same,k el,"[1]; human, in vivo, po",1.92e-05 s⁻¹
same,cmax = Imax,[4],1200 ng/mL
same,fraction unbound,[4],0.63
same,tmax,"[4]; p.o., ref Hardman, 2018",2.00 h
same,t1/2,[4],10.00 h
"COc1ccc(CCN(C)CCCC(C#N)(c2ccc(OC)c(OC)c2)C(C)C)cc1OC (stereo not shown) [Verapamil, verapamil]","Imax, portal",[1]; [9],3550 ng/mL
same,ka,"[1]; first-order absorption rate constant, calculated manually from available pharmacokinetic parameters",2.65 h⁻¹
"CN(C)CCc1c[nH]c2ccc(C[C@H]3COC(=O)N3)cc12 [Zolmitriptan, zolmitriptan]",mouse Oct1 uptake [fold change to pcDNA5],"mouse OCT1; fold change to the negative control, n = 12",7.6 fold change to pcDNA5
same,Km,human OCT1 (hOCT1),105 µM
same,human OCT1 uptake [fold change to pcDNA5],"OCT1 [2]; cocktail, fold change to the negative control, n = 12",6.6 fold change to pcDNA5
B1,Km,[7]; [11],0.94 ± 0.24 µM
same,Km,[7]; [12],0.95 ± 0.38 µM
same,Km,[8]; [11],16.9 ± 2.46 µM
same,Vmax,[8]; [11],0.000647 µmol/min/mg
same,Km,[8]; [12],13.9 ± 1.61 µM
same,Vmax,[8]; [12],0.000637 µmol/min/mg
